The values below come from ChEMBL document CHEMBL4425143, “Design and synthesis of new homo and hetero bis-piperazinyl-1-propanone derivatives as 5-HT7R selective ligands over 5-HT1AR” (Bioorg Med Chem Lett, 2016).

The target in data set [1] is T1, 5-hydroxytryptamine receptor 1A (Homo sapiens, UniProt P08908).
T1 sequence (P08908 whole entry): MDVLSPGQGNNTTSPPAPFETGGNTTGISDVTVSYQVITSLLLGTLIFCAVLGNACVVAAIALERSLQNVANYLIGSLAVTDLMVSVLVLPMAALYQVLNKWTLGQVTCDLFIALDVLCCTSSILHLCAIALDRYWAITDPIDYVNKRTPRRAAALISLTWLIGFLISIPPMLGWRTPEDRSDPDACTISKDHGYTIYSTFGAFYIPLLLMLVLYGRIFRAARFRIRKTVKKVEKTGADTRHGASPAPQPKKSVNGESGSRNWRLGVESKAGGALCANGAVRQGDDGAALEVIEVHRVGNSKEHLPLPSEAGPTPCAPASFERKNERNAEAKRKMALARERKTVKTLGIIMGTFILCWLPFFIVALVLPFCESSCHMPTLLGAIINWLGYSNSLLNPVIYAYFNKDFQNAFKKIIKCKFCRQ
In words: Displacement of [3H]-8-OH-DPAT from human 5-HT1A receptor expressed in CHOK1 cell membranes after 30 mins by liquid scintillation spectrometry.

The target of data set [2] is T2, 5-hydroxytryptamine receptor 7 (Homo sapiens, UniProt P34969). In words: Displacement of [3H]-5-HT from human 5-HT7 receptor expressed in CHOK1 cell membranes after 30 mins by liquid scintillation spectrometry. A general note: Displacement assays read how much labelled ligand stays bound in the presence of the test substance.
T2 sequence (P34969 whole entry): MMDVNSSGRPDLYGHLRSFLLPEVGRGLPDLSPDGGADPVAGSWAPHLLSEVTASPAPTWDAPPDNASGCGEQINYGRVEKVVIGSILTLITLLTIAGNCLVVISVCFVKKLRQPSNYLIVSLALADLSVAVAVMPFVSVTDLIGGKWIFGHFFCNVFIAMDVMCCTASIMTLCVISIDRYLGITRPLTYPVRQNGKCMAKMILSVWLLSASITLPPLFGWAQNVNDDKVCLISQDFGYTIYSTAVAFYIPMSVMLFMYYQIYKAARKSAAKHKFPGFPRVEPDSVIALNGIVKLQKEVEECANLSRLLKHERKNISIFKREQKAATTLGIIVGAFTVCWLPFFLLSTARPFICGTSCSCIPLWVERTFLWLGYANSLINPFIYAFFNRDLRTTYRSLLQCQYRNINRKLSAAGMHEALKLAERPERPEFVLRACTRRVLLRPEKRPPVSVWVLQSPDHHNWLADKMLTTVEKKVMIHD
For data set [3], the target named is T2, 5-hydroxytryptamine receptor 7. In words: Displacement of [3H]-5-HT from human 5-HT7 receptor expressed in CHOK1 cell membranes at 10^-5M after 30 mins by liquid scintillation spectrometry.
Data set [4] in a line: Dissociation constant, pKa of the compound at pH 7.4. It is filed as physicochemical.
For data set [5], the target named is T3, 5-hydroxytryptamine receptor 1A (Homo sapiens) (UniProt P08908).
T3 sequence (whole entry): T1 sequence (P08908 whole entry)
In words: Displacement of [3H]-8-OH-DPAT from human 5-HT1A receptor expressed in CHOK1 cell membranes at 10^-5M after 30 mins by liquid scintillation spectrometry.

By Ki is commonly meant the equilibrium dissociation constant of an inhibitor or competing ligand from its target. On to `O=C(CCCCN1CCN(c2ccccc2)CC1)N1CCN(c2ccccc2)CC1`, for which the inhibition constant Ki came to 350 nM in data set [1] and 197 nM in data set [2].
The inhibition is the percentage by which the read-out fell short of the control. The low end stands for little suppression, the high end for strong suppression. Turning to `O=C(CCNCc1ccccc1)N1CCN(c2ccccc2)CC1`, the inhibition in data set [3] was < 50%. Further, the affinity in data set [1], expressed as Ki, was 938 nM.
As for `CCOc1ccccc1N1CCN(CCC(=O)N2CCN(c3cccc(Cl)c3)CC2)CC1`, the inhibition constant (Ki) in data set [1] turned out to be 15.2 nM; in data set [2], 119 nM.
The like results for `O=C(CCN1CCN(c2cccc(Cl)c2)CC1)N1CCN(c2ccccc2)CC1` were, in that order, 33.5 nM and 32.7 nM.
For the molecule `O=C(CCN1CCN(Cc2ccccc2)CC1)N1CCN(c2cccc(Cl)c2)CC1`, the results for the Ki in data set [1] and in data set [2] were 101 nM and 54.7 nM, respectively.
The pKa is the pH at which an ionisable group is half protonated. Low readings indicate a group that gives up its proton readily, high ones a group that holds its proton tightly. On to `O=C(CCN1CCN(Cc2ccccc2)CC1)N1CCN(c2ccccc2)CC1`, for which, in data set [4], the pKa was found to be 8.55. The molecule also showed a Ki in data set [2] of 52 nM. Moreover, in data set [5], the inhibition is < 50%.
Take `O=C(CCN1CCN(c2ccc(Cl)cc2)CC1)N1CCN(c2cccc(Cl)c2)CC1`: the Ki in data set [1] worked out at 302 nM; in data set [2], 2370 nM.
Take `COc1ccc(N2CCN(C(=O)CCN3CCN(Cc4ccccc4)CC3)CC2)cc1`: the inhibition in data set [3] and in data set [5] was < 50% throughout.
In data set [2], `O=C(CCN1CCN(Cc2ccccc2)CC1)N1CCN(c2ccccn2)CC1` came in with a Ki of 29.5 nM. Moreover, the inhibition in data set [5] is < 50%.
Turning to `O=C(CCN1CCN(Cc2ccccc2)CC1)NCc1ccccc1`, the Ki in data set [1] came to 0.34 nM; in data set [2], 4.34 nM.
Regarding `O=C(CCN1CCN(c2ccccc2)CC1)N1CCN(c2ccccc2)CC1`, the Ki was 272 nM in data set [1] and 26.2 nM in data set [2]. The pKa in data set [4] amounted to 8.11.
`O=C(CCN1CCN(c2ccc(Cl)cc2)CC1)N1CCN(c2ccccc2)CC1`: the Ki was found to be 1680 nM in data set [1] and 462 nM in data set [2].
Regarding `COc1ccccc1N1CCN(C(=O)CCN2CCN(Cc3ccccc3)CC2)CC1`, the Ki in data set [2] came out at 24.2 nM. In data set [5], the inhibition was < 50%.
`O=C(CCN1CCN(c2ccccc2)CC1)N1CCN(c2cccc(Cl)c2)CC1`: the inhibition in data set [3] is < 50%. Also, the Ki in data set [1] turned out to be 1070 nM.
Regarding `O=C(CCN1CCN(c2cccc(Cl)c2)CC1)N1CCN(c2cccc(Cl)c2)CC1`, the inhibition constant Ki in data set [1] is 142 nM; in data set [2], 2760 nM.
Regarding `O=C(CCNCc1ccccc1)NCc1ccccc1`, the figures for the inhibition constant Ki in data set [1] and in data set [2] were 3750 nM and 176 nM, respectively.
For `CCOc1ccccc1N1CCN(CCC(=O)N2CCN(c3ccccc3)CC2)CC1`, the Ki in data set [1] stood at 81.8 nM; in data set [2], 80.3 nM.
In turn, `O=C(CCN1CCN(Cc2ccccc2)CC1)N1CCN(c2ncccn2)CC1` displayed a Ki in data set [2] of 23.5 nM. In addition, the inhibition in data set [5] is < 50%.
`O=C(CCN1CCN(Cc2ccccc2)CC1)N1CCN(c2ccccc2Cl)CC1` registered a Ki in data set [2] of 50.2 nM. For the same molecule, the inhibition in data set [5] was < 50%.
The matching figures for `O=C(CCN1CCN(Cc2ccccc2)CC1)N1CCN(c2ccc(Cl)cc2)CC1`: 36.6 nM and < 50%.
